Experimental data reported in patent US20130028986A1, “Pharmaceutical Compositions” (SABAREP LIMITED, priority 2005, published 2013).

Test system: skin or epidermal barrier (skin treated with clobetasol propionate)
Assay: Topical corticosteroid induced protease skin barrier damage model (tape stripping, TEWL)
Format: in vivo, human (volunteer)
Conditions: for rate of TEWL increase during tape stripping: compared to control and vehicle alone, up to 20 tape strips
Excerpt: Topical glucocorticoids (corticosteroids), which are used in the treatment of atopic dermatitis, damage the skin barrier and cause changes to the lipids within the epidermis, and a reduction in the number corneodesmosomes holding the corneocytes together. […] Therefore, skin that has been pretreated with gluticocorticoids can provide a good model in which to test the efficacy of compounds for their capacity to restore the skin or epidermal barrier and to be useful in the treatment of dermato logical conditions that compromise the skin or epidermal barrier, particularly those involving an abnormal decrease in the cell-to-cell adhesion between epithelial cells (in particular between corneocytes) such as atopic eczema or dermatitis, sebarrhoeic eczema, irritant contact dermatitis, allergic contact dermatitis and other sensitive skin conditions. […] The techniques disclosed by Kao et al. provide a measure of barrier integrity and corneocyte cohesion (any increases in TEWL are indicative of a loss in barrier function and increases in total protein removed by the skin strips are the result of a loss of intercellular cohesion, and vice versa). The methods employed by Kao were therefore used in the following examples. The TEWL measurements were taken using an “Aquaflux AF 102” electrolytic water analyser (Available from Biox Systems Ltd, Southwark Campus, 103 Borough Road, London SE1 0AA, UK) in the manner described in Berg et al. (Berg, E. P. Pascut, F. C, Ciortea, L. L, O'Driscoll, D., Xiao, P. and Imhof, R. E. (2002), Aquaflux—A new instrument for water vapour flux density measurement Proceedings of the 4th International Symposium on Humidity and Moisture, Centre for Measurement Standards, ITRI, RoC, ISBN 957-774-423-0, pp. 288-95) and Ciortea et al. (Ciortea, L. I. O'Driscoll, D., Berg, E. P., Xiao, P., Pascut, F. C. and Imhof, R. E. (2002), New methods for measuring water desorption and vapour permeation rates in membranes Proceedings of the 4th International Symposium on Humidity and Moisture, Centre for Measurement Standards, ITRI, RoC, ISBN 957-774-423-0, pp. 288-95).
Microfine zinc oxide (available from BASF Aktiengesellschaft, 67056 Ludwigshafen, Germany, under the trade mark Z-Cote®, item no. 55082355, or from Univar, Basildon, Essex, UK, as item no. 76011010; see also: Z-Cote®, BASF; Mitchnick, M. A., Fairhurst, D. and Pinnell, S. R. (1999) J Am Acad Dermatol 40: 85-90) (25%) in light liquid paraffin was applied twice a day to a volunteer's left forearm for 4 days; their right forearm received light liquid paraffin only. One fingertip unit of clobetasol propionate (a potent corticosteroid) was then applied twice a day to the study areas for 3 days. TEWL was then measured at base line and following the removal of 4, 8, 12 and 16 tape strips.
Microfine zinc oxide, 5 and 15%, in light liquid paraffin was applied twice a day to a volunteer's the left bicep and left forearm for 4 days, respectively; the right bicep received light liquid paraffin only. […] TEWL was then measured at base line and following the removal of 4, 8, 12 and 16 tape strips. […]
Four finger dips of 12 mg/ml zinc stearate in light liquid paraffin were applied to the right forearm for 9 days, twice daily. […] On day 10, TEWL was measured at base line following the removal of 4, 8, 12 and 16 tape strips. […]

CCCCCCCCCCCCCCCC(=O)O [palmitic acid, Hexadecanoic acid]
rate of TEWL increase during tape stripping (Example Id, FIG. 5, 12 mg/ml in PEG400/ethanol (7:3) 6 times a day for 4 days, then clobetasol propionate 3 times over 24 hours): significantly reduced

[O-2].[Zn+2] [Microfine zinc oxide, zinc oxide]
reduction in TEWL following the removal of 16 tape strips (Example Ia, FIG. 2, 25% in light liquid paraffin twice a day for 4 days on left forearm, then clobetasol propionate twice a day for 3 days, compared with light liquid paraffin only): 37.5%
protective effect (TEWL at base line and after 4, 8, 12 and 16 tape strips) (Example Ib, FIG. 3, 5 and 15% in light liquid paraffin twice a day for 4 days, clobetasol propionate twice a day for 3 days, compared with light liquid paraffin only): dose-dependant response
rate of TEWL increase during tape stripping (Example Ie, FIG. 6, zinc oxide 25% (alone or with 12 mg/ml palmitic acid) in PEG400/ethanol (7:3) 6 times a day for 4 days, clobetasol propionate 3 times over 48 hours): significantly reduced

zinc stearate
protection against the effects of clobetasol (TEWL at base line and after 4, 8, 12 and 16 tape strips) (Example Ic, FIG. 4, 12 mg/ml in light liquid paraffin twice daily for 9 days on right forearm, clobetasol propionate twice a day on days 6 to 9, TEWL on day 10): can also protect against the effects of clobetasol
